{"source": "patent US20240041899A1", "about": "“SOLID PREPARATION” (ASKA Pharmaceutical Co., Ltd., priority 2020, published 2024)", "test_system": "bladder specimen of high-week-old male rats", "experiment": "Test Example 3: isometric contraction test of bladder specimen from high-week-old male rats after oral dosing", "type": "in vivo", "settings": "22-week-old male rats, oral once a day 2 weeks, 10 mg/kg, compared with Group C (dutasteride 0.3 mg/kg)", "from_the_text": "High-week-old male rats (22-week-old; Charles River Laboratories Japan, Inc.) were examined and evaluated for the relationship between the test substances and the bladder and urethra contraction reaction. Since the rats are high-week-old, the rats are a model in which the prostate is predicted to be enlarged.\nA test substance was orally administered to the high-week-old male rats repeatedly at a frequency of once a day over two (2) weeks, and then, from each rat, a bladder specimen was extracted. The bladder specimen was suspended at a resting tension of about 9.8 mN in a constant-temperature Magnus tube (37° C.) filled with a physiological salt solution aerated with 95% 02-5% CO2 gas and was subjected to an isometric contraction test by applying a square-wave electrical field stimulation (EFS, Amplitude; 0.3 ms, Frequency; 1, 2, 5, 10, 20 Hz, Duration; 5 s); or Carbachol (CCH, 100 nmol/L to 100 μmol/L) and KCl (40, 80 mmol/L).\nSolvent group (control group): 0.5 v/v % Polysorbate 80 solution, 10 mL/kg (n=6) • Group A: Compound A, 10 mg/kg (n=6) • Group C: Compound C (dutasteride), 0.3 mg/kg (n=6)"}
{"smiles": "CC(=O)O[C@]1(C(C)=O)C[C@@H](O)[C@H]2[C@@H]3C=C(Cl)C4=CC(=O)OC[C@]4(C)[C@H]3CC[C@@]21C", "note": "[Compound A, 17α-acetoxy-6-chloro-15β-hydroxy-2-oxa-4,6-pregnadiene-3,20-dione]", "values": [{"measurement": "bladder contraction tension caused by square-wave electrical field stimulation or Carbachol and KCl", "value": "significantly strong or has a strong directionality"}]}
